Results taken from patent publication US4373094A, “Anthracycline derivatives” (Sanraku-Ocean Co., Ltd., priority 1980, dated 1983).
Converted amounts (≈) assume the structure as drawn.

Key:
[1] = tested on: L1210 cells; assay: Inhibition of DNA synthesis (14C-thymidine incorporation) in L1210 cells; format: cell-based, mouse; settings: RPMI 1640 medium containing 10% calf serum, pulse-labeling 37° C. for 60 minutes; for IC50: Mus musculus, 1 h, read-out: 50% Inhibitory concentration, 14C-Thymidine (Inhibition of DNA synthesis)
Description: (§1) Independently of the above-mentioned experiment, the compounds of the present invention were added to an about 5×10^5 cells/ml L1210 cell suspension in RPMI 1640 medium containing 10% calf serum at a concentration of 0.02-2.5 μg/ml. After 15 minutes, ^14 C-uridine (0.05 μCi/ml) or ^14 C-thymidine (0.05 μCi/ml) was added to the suspension and pulse-labeling was carried out at 37° C. for 60 minutes. The reaction was stopped by addition of a cold 10% trichloroacetic acid solution and an acid-insoluble fraction was precipitated. The precipitate was washed with a cold 5% trichloroacetic acid and the radioactivity was measured.

[2] = tested on: mouse leukemia L1210 cells; assay: Growth inhibition of cultured mouse leukemia L1210 cells (living cells counted); format: cell-based; settings: for IC50: Mus musculus, L1210, L1210 cells, read-out: 50% Inhibitory concentration, Growth inhibition after 24 hours; for antitumor effect on L1210 leukemia cells: in words
Description: The L1210 cells were cultivated at 37° C. overnight and transferred to RPMI (Roswell Park Memorial Institute) 1640 medium containing 20% calf serum at their exponential growth phase so as to give a cell concentration of 4×10^4 cells/ml. The compounds of the present invention were added to the medium at a concentration of 0.02-0.5 μg/ml. […]
as §1

[3] = tested on: L1210 cells; assay: Inhibition of RNA synthesis (14C-uridine incorporation) in L1210 cells; format: cell-based, mouse; settings: RPMI 1640 medium containing 10% calf serum, pulse-labeling 37° C. for 60 minutes; for IC50: Mus musculus, L1210, 1 h, read-out: 50% Inhibitory concentration, 14C-Uridine (Inhibition of RNA synthesis)
Description: as §1

[4] = Solubility in solvents; format: physicochemical; settings: for Solubilities: slightly soluble: slightly soluble solvents; for Solubilities: soluble: soluble solvents
[5] = RPMI 1640 medium containing 20% calf serum, 37° C., head: after 24 hours (text: 3 days)

CCC1(O)CC(OC2CC(N(C)C)C(OC3CC(O)C(OC4CCC(=O)C(C)O4)C(C)O3)C(C)O2)c2c(cc3c(c2O)C(=O)c2c(O)cc(O)cc2C3=O)C1C(=O)OC (stereo not shown) [2-hydroxy-aclacinomycin A, reference compound]
IC50 [1]: 0.9 µg/mL (≈ 1.09 µM)
IC50 [2, 5]: 0.15 µg/mL (≈ 0.181 µM)
IC50 [3]: 0.14 µg/mL (≈ 0.169 µM)

CCC1(O)CC(OC2CC(N(C)C)C(OC3CC(O)C(OC4CCC(O)C(C)O4)C(C)O3)C(C)O2)c2c(cc3c(c2O)C(=O)c2c(O)cc(O)cc2C3=O)C1C(=O)OC (stereo not shown) [2-hydroxy-aclacinomycin M]
IC50 [1]: 1.2 µg/mL (≈ 1.45 µM)
IC50 [2, 5]: 0.08 µg/mL (≈ 0.0964 µM)
antitumor effect on L1210 leukemia cells [2]: have an antitumor effect on L1210 leukemia cells
Solubilities: slightly soluble [4]: slightly soluble in water, ether and n-hexane
Solubilities: soluble [4]: soluble in acidic water, methanol, ethanol, n-butanol, acetone, ethyl acetate, chloroform, benzene, toluene, dimethylsulfoxide and methyl cellosolve
IC50 [3]: 0.1 µg/mL (≈ 0.12 µM)

CCC1(O)CC(OC2CC(N(C)C)C(OC3CC(O)C(OC4CCC(O)C(C)O4)C(C)O3)C(C)O2)c2c(cc3c(c2O)C(=O)c2c(O)cc(O)cc2C3=O)C1C(=O)OC (stereo not shown) [2-hydroxy-aclacinomycin N]
50% Inhibitory concentration, 14C-Thymidine (Inhibition of DNA synthesis) [1]: 1.2 µg/mL
50% Inhibitory concentration, Growth inhibition after 24 hours ([2]; L1210 cells, RPMI 1640 medium containing 20% calf serum, 37° C., head: after 24 hours (text: 3 days)): 0.095 µg/mL
antitumor effect on L1210 leukemia cells [2]: have an antitumor effect on L1210 leukemia cells
Solubilities: slightly soluble [4]: slightly soluble in water, ether and n-hexane
Solubilities: soluble [4]: soluble in acidic water, methanol, ethanol, n-butanol, acetone, ethyl acetate, chloroform, benzene, toluene, dimethylsulfoxide and methyl cellosolve
50% Inhibitory concentration, 14C-Uridine (Inhibition of RNA synthesis) [3]: 0.18 µg/mL

CCC1(O)CC(OC2CC(N(C)C)C(OC3CC(O)C(O)C(C)O3)C(C)O2)c2c(cc3c(c2O)C(=O)c2c(O)cc(O)cc2C3=O)C1C(=O)OC (stereo not shown) [2-hydroxy-aclacinomycin S]
IC50 [2, 5]: 0.7 µg/mL (≈ 0.978 µM)
antitumor effect on L1210 leukemia cells [2]: have an antitumor effect on L1210 leukemia cells
Solubilities: slightly soluble [4]: slightly soluble in water, ether and n-hexane
Solubilities: soluble [4]: soluble in acidic water, methanol, ethanol, n-butanol, acetone, ethyl acetate, chloroform, benzene, toluene, dimethylsulfoxide and methyl cellosolve
IC50 [3]: 1.3 µg/mL (≈ 1.82 µM)

CCC1(O)CC(OC2CC(N(C)C)C(O)C(C)O2)c2c(cc3c(c2O)C(=O)c2c(O)cc(O)cc2C3=O)C1C(=O)OC (stereo not shown) [2-hydroxy-aclacinomycin T]
IC50 [2, 5]: 0.46 µg/mL (≈ 0.786 µM)
antitumor effect on L1210 leukemia cells [2]: have an antitumor effect on L1210 leukemia cells
Solubilities: slightly soluble [4]: slightly soluble in water, ether and n-hexane
Solubilities: soluble [4]: soluble in acidic water, methanol, ethanol, n-butanol, acetone, ethyl acetate, chloroform, benzene, toluene, dimethylsulfoxide and methyl cellosolve
IC50 [3]: 1 µg/mL (≈ 1.71 µM)
